The subject of one data set is S. aureus FDA209P. Put plainly: Minimum inhibition concentration (MIC), agar double dilution method. Format: cell-based, Staphylococcus aureus. Conditions: Mueller hinton agar. As for the experimental part:
(§1) Test 1; Minimum Inhibition Concentration (MIC)
(§2) MIC was measured, based on the standard method of Japan Society of Chemotherapy, on a BHI agar medium (Brain heart-infusion agar, made by Difco Laboratories Inc.(USA)) with respect to Pasteurella and on a Mueller hinton agar medium (Mueller hinton agar, made by Difco, Laboratories Inc.(USA)) with respect to the other test bacteria in both cases according to the double dilution method.

Data set [1] concerns S. aureus Smith (virulent strain). Nature of the data set: microbe, parasite or virus in culture. It counts as cell-based, Staphylococcus aureus. Conditions: S. aureus Smith (virulent strain); Mueller hinton agar. As for the experimental part:
as §1, §2

The test system of data set [2] is Bacillus subtilis NRRL B-558. Nature of the data set: Minimum inhibition concentration (MIC), agar double dilution method. Format: cell-based. Conditions: Bacillus subtilis NRRL B-558; Mueller hinton agar. As for the experimental part: as §1, §2
In data set [3] the test system is Enterobacter aerogenes ATCC13048. The data set is described as above. Conditions: Mueller hinton agar. It counts as cell-based. The protocol: as §1, §2
A further data set has as its system Escherichia coli NIHJ. Described as above. Conditions: Mueller hinton agar. It counts as cell-based. The protocol:
as §1, §2

The subject of data set [4] is Klebsiella pneumoniae PCI602. The description is as above. Format: cell-based. To be noted: Mueller hinton agar. As for the experimental part: as §1, §2
Data set [5] deals with Micrococcus luteus PCI1001. The description is as above. Format: cell-based. To be noted: Mueller hinton agar. As for the experimental part:
as §1, §2

The test system of data set [6] is Pasteurella haemolytica BBPO101 N791. The description is as above. It counts as cell-based. To be noted: Pasteurella haemolytica BBPO101 N791, strain from cattle; BHI agar. As for the experimental part: as §1, §2
The subject of another data set is Proteus vulgaris OX19. The data set is described as above. It counts as cell-based. To be noted: Mueller hinton agar. The protocol:
as §1, §2

Data set [7] deals with Salmonella enteritidis 1891. The description is as above. It counts as cell-based. To be noted: Mueller hinton agar. As for the experimental part: as §1, §2
In another data set the test system is Serratia marcescens. The description is as above. It counts as cell-based. To be noted: Mueller hinton agar. The protocol:
as §1, §2

Data set [8] relates to Shigella dysenteriae JS11910. The description is as above. It counts as cell-based. To be noted: Shigella dysenteriae JS11910; Mueller hinton agar. As for the experimental part: as §1, §2
Data set [9] concerns Staphylococcus aureus 193. The description is as above. Format: cell-based. Conditions: Mueller hinton agar. The protocol:
as §1, §2

In data set [10] the test system is Past haemolytica BBPO102 N811. Described as above. Format: cell-based, Pasteurella haemolytica. Conditions: Past haemolytica BBPO102 N811, strain from cattle; BHI agar. As for the experimental part:
as §1, §2

Data set [11] has as its system Past. multocida BOPO305 M-17. The data set is described as above. Format: cell-based, Pasteurella multocida. To be noted: Past. multocida BOPO305 M-17, strain from a sheep; BHI agar. The protocol:
as §1, §2

Data set [12] deals with Past. multocida BSPO302 No. 6. The description is as above. To be noted: Past. multocida BSPO302 No. 6, strain from a pig; BHI agar. Format: cell-based, Pasteurella multocida. As for the experimental part:
as §1, §2

The next data set has as its system E. coli K-12 R-5. The data set is described as above. Conditions: Mueller hinton agar. Format: cell-based, Escherichia coli. The protocol: as §1, §2
In data set [13] the test system is Past haemolytica BAPO103 S801. The data set is described as above. Format: cell-based, Pasteurella haemolytica. Conditions: Past haemolytica BAPO103 S801, strain from poultry; BHI agar. As for the experimental part:
as §1, §2

For the next data set, the system named is ICR mice. Put plainly: Toxicity test, intravenous or subcutaneous injection. It counts as in vivo.
Setting [14] is: intravenous injection, 0.25 mg/mouse.
[15] abbreviates: intravenous injection, 0.5 mg/mouse.
Setting [16] is: intravenous injection, 1.5 mg/mouse.
Where [17] appears, read: intravenous injection, 2.0 mg/mouse.
Setting [18] is: subcutaneous injection, 1.0 mg/mouse.
[19] abbreviates: subcutaneous injection, 2.0 mg/mouse.
Where [20] appears, read: subcutaneous injection, 3.0 mg/mouse.
Where [21] appears, read: subcutaneous injection, 4.0 mg/mouse.

The source of these data is patent US6514946B1, “Macrolide antibiotics and treatment and prophylaxis of pasteurellosis using the same” (Zaidan Hojin Biseibutsu Kagaku Kenkyu Kai, priority 1999, dated 2003).

In brackets after ≈: the same amount, converted by molar mass.

As to `CC[C@H]1OC(=O)C[C@@H](O)[C@H](C)[C@@H](O[C@@H]2O[C@H](C)C(O)C(N(C)C)C2O)[C@@H](CCN(C)C2CCCCC2)C[C@@H](C)C(=O)/C=C/C(C)=C/[C@@H]1CN(C)C1CCCCC1` (stereo partly shown) [Compound C-3], the MIC with S. aureus FDA209P came out at 1.56 µg/mL (≈ 1.97 µM); in [1], 3.13 µg/mL (≈ 3.96 µM); in [2], 3.13 µg/mL (≈ 3.96 µM); in data set [3], 12.5 µg/mL (≈ 15.8 µM); in the data set with Escherichia coli NIHJ it was 3.13 µg/mL (≈ 3.96 µM); in [4], 3.13 µg/mL (≈ 3.96 µM). Also, the MIC in data set [5] stood at 0.78 µg/mL (≈ 0.987 µM); in [6] it was 0.39 µg/mL (≈ 0.494 µM); against Proteus vulgaris OX19, 12.5 µg/mL (≈ 15.8 µM); in data set [7], 1.56 µg/mL (≈ 1.97 µM); with Serratia marcescens, 50 µg/mL (≈ 63.3 µM); in [8], 6.25 µg/mL (≈ 7.91 µM). In addition, the MIC in data set [9] was determined as 1.56 µg/mL (≈ 1.97 µM); in data set [10], 0.78 µg/mL (≈ 0.987 µM); in data set [11], 1.56 µg/mL (≈ 1.97 µM); in data set [12] it was 1.56 µg/mL (≈ 1.97 µM).

Take `CC[C@H]1OC(=O)C[C@@H](O)[C@H](C)[C@@H](O[C@@H]2O[C@H](C)C(O)C(N(C)C)C2O)[C@@H](CCN2CCCC2)C[C@@H](C)C(=O)/C=C/C(C)=C/[C@@H]1CN1CCCC1` (stereo partly shown) [Compound C-6]: the MIC in data set [1] was 25 µg/mL (≈ 35.4 µM); in [2], 50 µg/mL (≈ 70.8 µM); in [3] it was 50 µg/mL (≈ 70.8 µM); in the data set with Escherichia coli NIHJ, 6.25 µg/mL (≈ 8.85 µM); in data set [5], 1.56 µg/mL (≈ 2.21 µM); in data set [6] it was 1.56 µg/mL (≈ 2.21 µM). In addition, the MIC in data set [7] was 3.13 µg/mL (≈ 4.43 µM); in the data set with Serratia marcescens, 100 µg/mL (≈ 142 µM); in [8], 12.5 µg/mL (≈ 17.7 µM); in data set [9], 25 µg/mL (≈ 35.4 µM); with E. coli K-12 R-5, >100 µg/mL; in data set [13] it was 25 µg/mL (≈ 35.4 µM). The MIC was determined as 1.56 µg/mL (≈ 2.21 µM) in data set [10], 3.13 µg/mL (≈ 4.43 µM) in [11] and 6.25 µg/mL (≈ 8.85 µM) in data set [12].

Regarding `CC[C@H]1OC(=O)C[C@@H](O)[C@H](C)[C@@H](O[C@@H]2O[C@H](C)C(O)C(N(C)C)C2O)[C@@H](CCN2CCCCCC2)C[C@@H](C)C(=O)/C=C/C(C)=C/[C@@H]1CN1CCCCCC1` (stereo partly shown) [Compound C-7], the MIC in data set [1] is 3.13 µg/mL (≈ 4.11 µM); in [2], 6.25 µg/mL (≈ 8.2 µM); in data set [3], 3.13 µg/mL (≈ 4.11 µM); in data set [4], 0.78 µg/mL (≈ 1.02 µM); in data set [5], 0.20 µg/mL (≈ 0.262 µM); in data set [6], 0.20 µg/mL (≈ 0.262 µM). The MIC worked out at 3.13 µg/mL (≈ 4.11 µM) in the data set on Proteus vulgaris OX19; 0.78 µg/mL (≈ 1.02 µM) in [7]; 12.5 µg/mL (≈ 16.4 µM) against Serratia marcescens; 1.56 µg/mL (≈ 2.05 µM) in data set [8]; 25 µg/mL (≈ 32.8 µM) against E. coli K-12 R-5; 0.20 µg/mL (≈ 0.262 µM) in data set [10]. Further, the figures for the MIC in data set [11] and in data set [12] were 0.10 µg/mL (≈ 0.131 µM) and 0.39 µg/mL (≈ 0.512 µM), respectively. Further, the Dissection finding entry in the data set with ICR mice (setting [14]), in the data set with ICR mice (setting [15]), with ICR mice (setting [16]), in the data set with ICR mice (setting [17]), in the data set with ICR mice (setting [18]) and with ICR mice (setting [19]) was “no abnormal finding” in each case. In addition, the Dissection finding entry in the data set on ICR mice (setting [20]) was “a little decoloring in kidney”; in the data set on ICR mice (setting [21]) it was “no abnormal finding”. Also, the Surviving number is 2/2 in the data set with ICR mice (setting [14]), 1/2 (immediate death) in the data set on ICR mice (setting [15]), 0/2 (immediate death) in the data set on ICR mice (setting [16]) and 0/2 (immediate death) in the data set on ICR mice (setting [17]). The “Surviving number / number of used animals” value was 2/2 in the data set on ICR mice (setting [18]), 2/2 with ICR mice (setting [19]), 2/2 with ICR mice (setting [20]) and 0/1 (died after 30 minutes) in the data set with ICR mice (setting [21]).
